Tests used:
[1] = molecular target: T1, human leukocyte elastase (HLE) (Homo sapiens, UniProt P08246); experiment: anti-elastase activity relative to human leukocyte elastase, Me-OSAAPV-p-NA substrate, spectrophotometry; assay type: biochemical
T1 sequence (P08246 30-267): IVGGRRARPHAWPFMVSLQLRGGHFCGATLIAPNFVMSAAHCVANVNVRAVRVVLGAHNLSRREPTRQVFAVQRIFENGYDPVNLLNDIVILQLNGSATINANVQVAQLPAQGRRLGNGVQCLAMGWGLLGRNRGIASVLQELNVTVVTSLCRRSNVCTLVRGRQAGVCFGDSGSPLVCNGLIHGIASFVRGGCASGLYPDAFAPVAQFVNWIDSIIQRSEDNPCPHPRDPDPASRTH
Protocol: The anti-elastase activity of compounds according to the invention has been determined relative to human leukocyte elastase (HLE).
The test is performed as follows. […]
The inhibition % of the control elastase activity is then determined through spectrophotometry.

[2] = system: surviving human skins treated by human leukocyte elastase (HLE); experiment: ex vivo activity on fresh cuts of surviving human skins treated by HLE for 2 hours, elastic fibre morphometry; conditions: 20° C.
Protocol: The ex vivo activity of the compound in example 2 has been evaluated on surviving human skins treated by human leukocyte elastase (HLE). Fresh cuts from human skins, originating from 2 different donors, are treated for 2 hours, at 20° C., by 20 μl of a buffer solution (pH 7.4) optionally comprising 10 μg/ml of HLE and optionally 0.1% of the compound to be tested, optionally previously put in a solution in ethanol. The elastic fibres are coloured in blue using (+) catechin and are morphometrically quantified by computer assisted picture analysis. The surface percentage of average dermis occupied by the elastic fibres was evaluated this way.

[3] = system: surviving human skins treated by human leukocyte elastase (HLE); experiment: ex vivo activity on human skin fragments kept surviving 10 days in culture with HLE, elastic fibre morphometry; conditions: HLE 0.5 μg per ml of medium + 5 μl of compound at 0.2% in ethanol every other day, 37° C., 3 donors
Protocol: The ex vivo activity of the compound in example 2 has been evaluated on surviving human skins treated by human leukocyte elastase (HLE). Fragments of normal human skin, originating from 3 different donors, are placed in inserts positioned in culture wells. Some antibiotic supplemented culture medium is added in the bottom of the wells. A passage occurs through slow diffusion between both compartments by means of a porous membrane (pore size: 12 μm). The culture medium is renewed every three days. Optionally 0.5 μg of HLE per ml of culture medium are optionally added on the skin fragments. Also are added, every other day, 5 μl of the compound to be tested, previously put in a solution at 0.2% in weight in ethanol. The skins are kept surviving for 10 days at 37° C. The elastic fibres are coloured in blue using (+) catechin and are morphometrically quantified by computer assisted picture analysis. The surface percentage of average dermis occupied by the elastic fibres was evaluated this way.

[4] = system: surviving UVA irradiated human skins (8 J/cm^2); experiment: activity on surviving UVA irradiated human skins, morphometry of elastic fibres and collagen; conditions: UVA 8 J/cm^2 + 5 μl of compound at 0.2% in ethanol every two days; 7 days, 37° C.; four donors
Protocol: The activity of the compound in example 2 has been evaluated on surviving UVA irradiated human skins (8 J/cm^2). Fragments of normal human skin, originating from four different donors, are placed in inserts positioned in culture wells. Some antibiotic supplemented culture medium is added in the bottom of the wells. A passage occurs through slow diffusion between both compartments by means of a porous membrane (pore size: 12 μm). The culture medium is renewed every three days. On the skin fragments, every two days, are added 5 μl of the compound to be tested, previously put in a solution at 0.2% in ethanol. The skins are kept surviving for 7 days at 37° C. The skins are irradiated once at 8 J/cm^2 at 37° C. (Vilbert-Lourmat lamp, RMX-3W). The elastic fibres are coloured in blue using (+) catechin and are morphometrically quantified by computer assisted picture analysis. The surface percentage of average dermis occupied by the elastic fibres was evaluated this way.

| Structure (SMILES) | Inhibition % of the control elastase activity ([1]; concentration of compound A 0.2%) [%] | inhibition of the elastase activity (in words) ([1]; even in a low amount) | Surface % occupied by the elastic fibres ([2]; Skin 1, HLE 10 μg/ml + 0.1% compound) [%] | Surface % occupied by the elastic fibres ([2]; Skin 2, HLE 10 μg/ml + 0.1% compound) [%] | Surface % occupied by the elastic fibres [3] [%] | Morphometric analysis of the collagen (superficial dermis) [4] [%] | Morphometric analysis of the elastic fibres (superficial dermis) [4] [%] | Inhibition % of the control elastase activity ([1]; compound concentration 0.1%, HLE 40 milli-units per ml, 37° C., 60 minutes) [%] |
| --- | --- | --- | --- | --- | --- | --- | --- | --- |
| CC(=O)N(c1cccc(C(F)(F)F)c1)C(C(=O)NCC(=O)O)C(C)C (centres unmarked) [Compound A, {2-[acetyl-(3-trifluoromethyl-phenyl)-amino]-3-methyl-butyrylamino}acetic acid] | 68 | strong inhibition | 13.95 | 11.85 | 7.1 | 92 | 6.8 |  |
| CCOC(=O)CNC(=O)C(C(C)C)N(Cc1ccccc1)C(=O)CP(=O)(OCC)OCC (centres unmarked) [Compound B, ethyl (2-{benzyl-[(diéethoxyphosphoryl)-acetyl]-amino}-3-méthylbutyrylamino) acetate] |  |  |  |  |  |  |  | 17 |
